The results in this text go back to patent publication US11390626B2, “Pyrazolopyrimidine modulators of RAS GTPase” (Tosk, Inc., priority 2019, dated 2022).

Values joined by “and” are separate entries in the source; they are usually repeats but may differ in a detail not shown here. Identical values can stand only once.

The test system of this assay is Drosophila melanogaster flies with human G12V kRAS expressed in the wing. The experiment in a line: Fly screen: reversal of crinkled wing phenotype. It is filed as in vivo. The source says: The Tosk approach uses Drosophila melanogaster flies as media for initial screening for RAS modulating compounds. Tosk has created a fruit fly with human kRAS G12V expressed in its wing. The mutant kRAS expressed in the fly wing appears functional, even though it operates in the presence of the other physiological systems present in the fly. The fly phenotype in the mutant fly is a crimped wing which can be reversed to a great extent if the fly is fed food enriched with an effective kRAS inhibitor. The fly kRAS suppressor screen can provide a more predictive model compared to conventional discovery methods because the kRAS is in its natural (i.e., not artificial/isolated/manipulated) environment anchored to the plasma membrane, positioned correctly, and surrounded by appropriate neighboring chemicals. Several reports have emphasized the importance of kRAS positioning and environment to realize protein activity.
2. Fly with Crinkled Wing Phenotype.
1. Production of Fly Food/Test Article Mix. A Biomek 2000 robotic arm is used to pipet 40 μL of a 10 mM DMSO solution of Test Article into a 35 mL polypropylene Drosophila fly vial (VWR 89092-728) containing 10 mL ETOH. A half teaspoon blue fly food (4-24, Carolina Biological Supply), is added and the tubes are vortexed and placed into a HT-4X GeneVac to remove the DMSO and ETOH. The tube is vortexed, 4 ml water added, and vortexed again. Control samples are tubes with fly food prepared with just 40 μL DMSO, no Test Article, or 40 μL of a DMSO solution containing 50 μM of the trametanib positive control. 2. Screen. Several hundred male G12V kRAS flies and several hundred GAL4 females are placed in a custom Plexiglas population cage (12″×12″×8″) made fly condo containing grape agar and yeast paste prepared using a published protocol. Embryos from the container are washed off the grape agar onto a sieve and re-suspended in an aqueous sucrose/salt/triton solution. An aliquot of this solution is analyzed using a dissecting microscope to determine the embryo concentration. The appropriate solution to deliver 150 embryos is then added to the fly food/Test article vials. The vial is capped with a cellulose fly bottle plug. […] The vials are incubated at 23° C. in a temperature-controlled room for 12 days. 3. Analysis. After 12 days, all flies in a vial are observed under a microscope following CO2 anesthesia for the number of phenotype reversals compared to the total number of viable flies. Cell culture testing is typically performed for any Test Article showing evidence of >25% phenotype reversal. The trametinib positive control provides reversal of the crimped/crinkled phenotype for 50-75% of the flies.
A library of over 16,000 distinct chemicals was purchased from ChemDiv, San Diego, Calif. All the compounds were evaluated in the fly screen described above for the ability to reverse the crinkled wing phenotype. […] One of the three compounds was Structure 1.

In the case of `CC(=O)Nc1cccc(-n2c(=O)n(C3CC3)c(=O)c3c(Nc4ccc(I)cc4F)n(C)c(=O)c(C)c32)c1` [Trametinib], the “Reversal of the crimped/crinkled phenotype, share of the flies (positive control, general)” value (40 μL of 50 μM DMSO solution in fly food, 12 days) was 50-75%. Moreover, the “Flies with Reversed Phenotype” value (Experiment 1, 0.5 μM in fly food) is listed as 29%; the “Flies with Reversed Phenotype” value (Experiment 2, 0.5 μM in fly food) was 63% and 64%; the “Flies with Reversed Phenotype” value (Experiment 2, 0.5 μM in fly food, listed as trametinib) was 63% and 64%.
